{"source": "patent US10155948B2", "about": "“Pharmaceutical composition for preventing or treating diabetic complications and screening method for preventive or therapeutic agent for diabetic complications” (KANGWON NATIONAL UNIVERSITY UNIVERSITY-INDUSTRY COOPERATION …, priority 2016, dated 2018)", "biological_target": "T1, TGase2 (Homo sapiens, UniProt P21980)", "T1 sequence (P21980 1-687)": "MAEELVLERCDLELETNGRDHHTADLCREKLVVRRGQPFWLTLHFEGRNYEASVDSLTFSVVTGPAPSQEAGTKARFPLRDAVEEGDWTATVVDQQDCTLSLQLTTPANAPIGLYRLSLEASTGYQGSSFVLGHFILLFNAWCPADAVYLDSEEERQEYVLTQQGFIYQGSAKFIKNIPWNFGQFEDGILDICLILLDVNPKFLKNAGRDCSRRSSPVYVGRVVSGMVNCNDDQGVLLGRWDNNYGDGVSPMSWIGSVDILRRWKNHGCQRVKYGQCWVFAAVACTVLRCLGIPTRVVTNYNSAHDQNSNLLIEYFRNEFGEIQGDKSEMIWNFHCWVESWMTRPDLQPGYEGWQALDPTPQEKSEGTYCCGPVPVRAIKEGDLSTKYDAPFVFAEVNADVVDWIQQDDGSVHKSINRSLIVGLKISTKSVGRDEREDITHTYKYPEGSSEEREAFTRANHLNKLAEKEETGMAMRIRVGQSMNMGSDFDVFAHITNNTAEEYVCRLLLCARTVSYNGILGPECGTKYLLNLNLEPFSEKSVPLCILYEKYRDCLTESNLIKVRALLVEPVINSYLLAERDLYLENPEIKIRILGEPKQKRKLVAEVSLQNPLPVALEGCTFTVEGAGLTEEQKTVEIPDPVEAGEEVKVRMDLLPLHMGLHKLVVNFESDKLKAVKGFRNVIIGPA", "assay": "In-situ TGase activity by confocal microscopy in VEGF-treated HRECs", "format": "cell-based", "design": "endogenous in cells; host or cells: human retinal endothelial cells (HRECs)", "details": "10 ng/ml VEGF 2 hrs, 50 μM cystamine, 20 μM MDC, 5 μM BAPTA-AM, 1 mM NAC, 0.5 μM Trolox, p<0.001", "procedure": "HUVEC isolation was done by our own supply and Human retinal endothelial cells (HRECs) were purchased from the Applied Cell Biology Research Institute (Cell Systems, Kirkland, Wash.). Both respectively were grown on 2% gelatin-coated plates in a M199 medium supplemented with 20% fetal bovine serum (FBS), 3 ng/ml basic fibroblastic growth factor, 5 units/ml heparin, 100 units/ml penicillin, and 100 μg/ml streptomycin. For experiments, cells were incubated for 6 hrs in a low-serum medium supplemented with 1% FBS and antibiotics.\nIn-situ Tgase transamidating activity was determined via confocal microscopic assay according to a previously known procedure. In brief, cells were incubated with 1 mM 5-(biotinamido)pentylamine (BAPA) for 1 hr at 37° C., fixed with 3.7% formaldehyde in PBS for 30 min, and permeabilized with 0.2% Triton X-100 in PBS for 30 min. After incubation with a blocking solution of 2% BSA in 20 mM Tris (pH 7.6), 138 mM NaCl, and 0.1% Tween 20 for 30 min, cells were treated with Cy3-conjugated streptavidin (1:200, v/v) in the blocking solution for 1 hr. Single-cell fluorescence intensities of stained cells were determined using confocal microscopy for 10 randomly selected cells per test. TGase activities were determined by comparing average fluorescence intensities of treated cells with those of control cells (expressed as multiples thereof).\nHRECs were transfected with human TGase2-specific siRNA as described previously. In brief, cells were transfected with various concentrations of human TGase2-siRNA or 100 nM control siRNA (Dharmacon, Lafayette, Colo.) using siLentFect lipid reagent (Bio-Rad Laboratories, Hercules, Calif.) according to the manufacturer's instructions. Six hours after transfection with the indicated concentrations, the medium was replaced with a fresh culture medium and the transfected cells were further incubated for 24 hrs.\nA detailed description of FIGS. 1A-1F are given below. […] (A, B) HRECs were incubated with 10 ng/ml VEGF for the indicated times (A) or for 2 hrs (B) in the presence of TGase inhibitors (50 μM cystamine and 20 μM MDC), 5 μM Ca^2+ chelator BAPTA-AM, or ROS scavengers (1 mM NAC or 0.5 μM Trolox). In-situ TGase activity was determined by confocal microscopy as described in Research Design and Methods (A: Time course changes in VEGF-induced transglutaminase activation; and B: Effects of various inhibitors on VEGF-induced transglutaminase activation). (C,D) HRECs were transfected with the indicated concentrations (C) or 100 nM (D) of human TGase2-specific siRNA (TGase2 siRNA) or 100 nM control (Ctrl) siRNA. Endothelial cells were treated with 10 ng/ml VEGF and subjected to confocal microscopic determination of in-situ TGase activity (C: Dose-dependent inhibition of TGase2 expression by TGase2 siRNA, TGase2 expression being analyzed by Western blot; and D: TGase2 siRNA prevention of VEGF-induced transglutaminase activation). FIGS. 1E and 1F show the effects of various inhibitors on the elevation of intracellular Ca^2+ (E) and ROS (F). Intracellular Ca^2+ and ROS levels were determined by confocal microscopy as described in Research Design and Methods. Results are expressed as mean±SD from three independent trials (***p<0.001).", "data": [{"smiles": "CN(C)c1cccc2c(S(=O)(=O)NCCCCCN)cccc12", "note": "[MDC, monodansylcadaverine]", "values": [{"measurement": "VEGF-induced TGase activation (in-situ TGase activity)", "result": "prevented"}]}, {"smiles": "Cc1c(C)c2c(c(C)c1O)CCC(C)(C(=O)O)O2", "note": "(stereo not drawn) [Trolox]", "values": [{"measurement": "VEGF-induced TGase activation (in-situ TGase activity)", "result": "inhibited"}]}, {"smiles": "NCCSSCCN", "note": "[cystamine]", "values": [{"measurement": "VEGF-induced TGase activation (in-situ TGase activity)", "result": "prevented"}]}]}
